{
  "source": "ChEMBL document CHEMBL1143408",
  "about": "(Antimicrob Agents Chemother, 2007)",
  "key": {"[1]": {"test": "Drug level in human cystic fibrosis patient serum at 2000 mg/20 mins infusion", "assay_type": "ADME, cell-free", "details": "iv, read-out: Drug uptake"}, "[2]": {"test": "Drug level in healthy human serum at 2000 mg/20 mins infusion", "assay_type": "ADME, cell-free", "details": "iv, read-out: Drug uptake"}, "Pseudomonas aeruginosa": {"tested_on": "Pseudomonas aeruginosa", "test": "Antimicrobial activity against Pseudomonas aeruginosa isolated from cystic fibrosis patient sputum culture"}},
  "data": [
    {"smiles": "C[C@H]1[C@H](NC(=O)/C(=N\\OC(C)(C)C(=O)O)c2csc(N)n2)C(=O)N1S(=O)(=O)O", "note": "[AZTREONAM]", "values": [
      {"measurement": "concentration at 20 min", "setting": "[1]", "result": 228, "unit": "µg/mL"},
      {"measurement": "concentration at 20 min", "setting": "[2]", "result": 242, "unit": "µg/mL"},
      {"measurement": "MIC", "setting": "Pseudomonas aeruginosa", "result": "≤ 8", "unit": "ng/mL"}
    ]}
  ]
}
